Experimental data from patent US20190292167A1, “HETEROAROMATIC COMPOUNDS USEFUL FOR THE TREATMENT OF PROLIFERATIVE DISEASES” (Syros Pharmaceuticals, Inc., priority 2013, published 2019).
Counter-ions that a name gives are not always drawn. Like-named read-outs stand apart in the source and are kept apart here.

Assays:
[1] = molecular target: T1, CDK7 (Homo sapiens, UniProt P50613); assay: Adapta kinase assay (Life Technologies) against CDK7, co-factors cyclin H and MNAT1; format: biochemical; conditions: read-out: CDK7 Inhibition
T1 construct: purchased Life Technologies (Adapta kinase assay service)
T1 sequence (P50613 whole entry): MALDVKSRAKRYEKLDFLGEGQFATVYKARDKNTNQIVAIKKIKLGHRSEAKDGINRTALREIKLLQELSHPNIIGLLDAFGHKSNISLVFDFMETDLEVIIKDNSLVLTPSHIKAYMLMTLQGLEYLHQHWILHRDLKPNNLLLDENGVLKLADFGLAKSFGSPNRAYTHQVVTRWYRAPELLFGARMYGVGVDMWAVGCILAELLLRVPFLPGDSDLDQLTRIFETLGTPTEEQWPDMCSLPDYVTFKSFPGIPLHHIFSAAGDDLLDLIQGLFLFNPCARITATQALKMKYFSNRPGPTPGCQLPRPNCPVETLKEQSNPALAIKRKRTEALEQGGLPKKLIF
T1 sequence (P51946 whole entry partner): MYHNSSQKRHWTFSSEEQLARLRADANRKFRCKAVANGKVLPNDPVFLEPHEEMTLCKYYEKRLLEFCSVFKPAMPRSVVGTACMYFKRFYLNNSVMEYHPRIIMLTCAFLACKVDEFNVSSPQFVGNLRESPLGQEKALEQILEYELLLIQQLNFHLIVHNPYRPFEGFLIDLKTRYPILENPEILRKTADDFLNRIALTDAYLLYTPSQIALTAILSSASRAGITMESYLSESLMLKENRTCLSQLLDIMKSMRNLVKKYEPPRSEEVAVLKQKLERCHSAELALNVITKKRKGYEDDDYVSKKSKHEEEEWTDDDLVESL
T1 sequence (P51948 whole entry partner): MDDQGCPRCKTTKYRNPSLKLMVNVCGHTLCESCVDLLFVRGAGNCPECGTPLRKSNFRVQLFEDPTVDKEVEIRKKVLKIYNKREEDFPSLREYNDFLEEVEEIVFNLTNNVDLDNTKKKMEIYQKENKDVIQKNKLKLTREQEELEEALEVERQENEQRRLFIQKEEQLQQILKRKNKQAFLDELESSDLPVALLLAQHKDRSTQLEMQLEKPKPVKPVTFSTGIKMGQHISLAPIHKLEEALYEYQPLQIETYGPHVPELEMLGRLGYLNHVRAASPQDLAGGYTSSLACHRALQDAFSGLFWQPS
Protocol: Compounds of the invention were assayed for activity against CDK7 at Life Technologies™ (Grand Island, N.Y.) using their commercially available Adapta® kinase assay services. […] Details of the assay, including the substrate used for CDK7 kinase, are available on the Life Technologies web site (http://www.lifetechnologies.com/us/en/homellife-science/drug-discovery/target-and-lead-identification-and-validation/kinasebiology/kinase-activity-assays.html).
The co-factors used for the assay were cyclin H and MNAT1.

[2] = test system: Jurkat; assay: Inhibition of cell proliferation, CellTiter-Glo, 72 hour; format: cell-based; conditions: Blood cancer cell line, 72 hour, read-out: Inhibition of Proliferation of Jurkat Cells
Protocol: The following cancer cell lines were tested with the media conditions indicated: […]

| IC50 [1] | IC50 ([2]; Homo sapiens, Jurkat, 72 h) | IC50 [2] | Compound |
| --- | --- | --- | --- |
| 0.1 to 1 µM | 0.5 to 5 µM |  | Cc1nc(C)c(-c2nc(N[C@H]3CC[C@@H](NC(=O)c4ccc(NC(=O)/C=C/CN(C)C)cc4)C3)ncc2Cl)s1 (racemic) [Compound 128, N-((1R,3S)-3-((5-chloro-4-(2,4-dimethylthiazol-5-yl)pyrimidin-2-yl)amino)cyclopentyl)-4-((E)-4-(dimethylamino)but-2-enamido)benzamide and N-((1S,3R)-3-((5-chloro-4-(2,4-dimethylthiazol-5-yl)pyrimidin-2-yl)amino)cyclopentyl)-4-((E)-4-(dimethylamino)but-2-enamido)benzamide] |
| < 0.1 µM | < 0.5 µM |  | CN(C/C=C/C(=O)Nc1ccc(CN2CCC(Nc3ncc(Cl)c(-c4c[nH]c5ccccc45)n3)CC2)cc1)CC(O)CO (stereo not shown) [Compound 143, (E)-N-(4-((4-((5-chloro-4-(1H-indol-3-yl)pyrimidin-2-yl)amino)piperidin-1-yl)methyl)phenyl)-4-((2,3-dihydroxypropyl)(methyl)amino)but-2-enamide] |
| 0.1 to 1 µM | 0.5 to 5 µM |  | CN(C)C/C=C/C(=O)Nc1ccc(C(=O)N2CCC(Nc3ncc(Cl)c(-c4cccnc4)n3)CC2)cc1 [Compound 118, (E)-N-(4-(4-((5-chloro-4-(pyridin-3-yl)pyrimidin-2-yl)amino)piperidine-1-carbonyl)phenyl)-4-(dimethylamino)but-2-enamide] |
| < 0.1 µM | 0.5 to 5 µM |  | Nc1ccc(C(=O)N2CCC(Nc3ncc(Cl)c(-c4c[nH]c5ccccc45)n3)CC2)cc1F [Compound 55, (4-amino-3-fluorophenyl)(4-(5-chloro-4-(1H-indol-3-yl)pyrimidin-2-ylamino)piperidin-1-yl)methanone] |
| < 0.1 µM |  | < 0.5 µM | CN(C)CC=CC(=O)Nc1ccc(C(=O)NC2CNCC(Nc3ncc(Cl)c(-c4c[nH]c5ccccc45)n3)C2)cc1 (racemic) [Compound 150, N-((+/−trans)-5-((5-chloro-4-(1H-indol-3-yl)pyrimidin-2-yl)amino)piperidin-3-yl)-4-((E)-4-(dimethylamino)but-2-enamido)benzamide] |
| < 0.1 µM | < 0.5 µM |  | Cc1[nH]c2ccccc2c1-c1nc(N[C@@H]2CC[C@H](NC(=O)c3ccc(NC(=O)/C=C/CN(C)C)cc3)C2)ncc1Cl (racemic) [Compound 126, N-((1R,3S)-3-((5-chloro-4-(2-methyl-1H-indol-3-yl)pyrimidin-2-yl)amino)cyclopentyl)-4-((E)-4-(dimethylamino)but-2-enamido)benzamide and N-((1S,3R)-3-((5-chloro-4-(2-methyl-1H-indol-3-yl)pyrimidin-2-yl)amino)cyclopentyl)-4-((E)-4-(dimethylamino)but-2-enamido)benzamide] |
| > 1 µM |  | > 5 µM | CN(C)C/C=C/C(=O)Nc1ccc(C(=O)N[C@@H]2CC[C@H](Nc3ncc(Cl)c(-c4cc[nH]n4)n3)C2)cc1.CN(C)C/C=C/C(=O)Nc1ccc(C(=O)N[C@H]2CC[C@@H](Nc3ncc(Cl)c(-c4cc[nH]n4)n3)C2)cc1 (mixture of isomers) [Compound 124, N-((1R,3S)-3-((5-chloro-4-(1H-pyrazol-3-yl)pyrimidin-2-yl)amino)cyclopentyl)-4-((E)-4-(dimethylamino)but-2-enamido)benzamide and N-((1S,3R)-3-((5-chloro-4-(1H-pyrazol-3-yl)pyrimidin-2-yl)amino)cyclopentyl)-4-((E)-4-(dimethylamino)but-2-enamido)benzamide] |
| < 0.1 µM | 0.5 to 5 µM |  | NCCC(=O)Nc1cccc(Nc2ncc(Cl)c(-c3c[nH]c4ccccc34)n2)c1 [Compound 306, 3-amino-N-(3-(5-chloro-4-(1H-indol-3-yl)pyrimidin-2-ylamino)phenyl) propanamide.TFA] |
| 0.1 to 1 µM | < 0.5 µM |  | CN(C)C/C=C/C(=O)Nc1ccc(C(=O)N[C@@H]2CC[C@H](Nc3ncc(Cl)c(-c4c[nH]c5ccccc45)n3)C2)cc1 (racemic) [Compound 120, N-((1R,3S)-3-((5-chloro-4-(1H-indol-3-yl)pyrimidin-2-yl)amino)cyclopentyl)-4-((E)-4-(dimethylamino)but-2-enamido)benzamide and N-((1S,3R)-3-((5-chloro-4-(1H-indol-3-yl)pyrimidin-2-yl)amino)cyclopentyl)-4-((E)-4-(dimethylamino)but-2-enamido)benzamide] |
| < 0.1 µM | < 0.5 µM |  | CN(C)C/C=C/C(=O)Nc1ccc(CN2CCC(Nc3ncc(Cl)c(-c4c[nH]c5ccccc45)n3)CC2)cc1 [Compound 106, (E)-N-(4-((4-((5-chloro-4-(1H-indol-3-yl)pyrimidin-2-yl)amino)piperidin-1-yl)methyl)phenyl)-4-(dimethylamino)but-2-enamide] |
| < 0.1 µM | < 0.5 µM |  | CN1CCN(C/C=C/C(=O)Nc2ccc(C(=O)N3CC[C@@H](Nc4ncc(C#N)c(-c5c[nH]c6ccccc56)n4)C3)cc2)CC1 [Compound 110, (E)-N-(4-((R)-3-(5-cyano-4-(1H-indol-3-yl)pyrimidin-2-ylamino)pyrrolidine-1-carbonyl)phenyl)-4-(4-methylpiperazin-1-yl)but-2-enamide] |
| 0.1 to 1 µM | 0.5 to 5 µM |  | Cc1nc(C)c(-c2nc(NC3CCN(C(=O)c4ccc(NC(=O)/C=C/CN(C)C)cc4)CC3)ncc2Cl)s1 [Compound 119, (E)-N-(4-(4-((5-chloro-4-(2,4-dimethylthiazol-5-yl)pyrimidin-2-yl)amino)piperidine-1-carbonyl)phenyl)-4-(dimethylamino)but-2-enamide] |
| 0.1 to 1 µM | 0.5 to 5 µM |  | N#Cc1cnc(NC2CCN(C(=O)c3ccc(N)cc3)CC2)nc1-c1c[nH]c2ccccc12 [Compound 26, 2-(1-(4-aminobenzoyl)piperidin-4-ylamino)-4-(1H-indol-3-yl)pyrimidine-5-carbonitrile] |
| < 0.1 µM | < 0.5 µM |  | CN(C/C=C/C(=O)Nc1ccc(C(=O)N2CC[C@@H](Nc3ncc(C#N)c(-c4c[nH]c5ccccc45)n3)C2)cc1)CCO [Compound 111, (E)-N-(4-((R)-3-(5-cyano-4-(1H-indol-3-yl)pyrimidin-2-ylamino)pyrrolidine-1-carbonyl)phenyl)-4-((2-hydroxyethyl)(methyl)amino)but-2-enamide] |
| < 0.1 µM | < 0.5 µM |  | CNC/C=C/C(=O)Nc1ccc(CN2CCC(Nc3ncc(Cl)c(-c4c[nH]c5ccccc45)n3)CC2)cc1 [Compound 142, (E)-N-[4-[[4-[[5-chloro-4-(1H-indol-3-yl)pyrimidin-2-yl]amino]-1-piperidyl]methyl]phenyl]-4-(methylamino)but-2-enamide] |
| 0.1 to 1 µM | 0.5 to 5 µM |  | Nc1ccc(C(=O)N2CCC(Nc3ncc(Cl)c(-c4c[nH]c5ccccc45)n3)CC2)c(F)c1 [Compound 67, (4-amino-2-fluorophenyl)(4-(5-chloro-4-(1H-indol-3-yl)pyrimidin-2-ylamino)piperidin-1-yl)methanone] |
| < 0.1 µM | < 0.5 µM |  | CN(C)C/C=C/C(=O)Nc1cccc(CN2CCC(Nc3ncc(Cl)c(-c4c[nH]c5ccccc45)n3)CC2)c1 [Compound 141, (E)-N-[3-[[4-[[5-chloro-4-(1H-indol-3-yl)pyrimidin-2-yl]amino]-1-piperidyl]methyl]phenyl]-4-(dimethylamino)but-2-enamide] |
| 0.1 to 1 µM | > 5 µM |  | Nc1ccc(C(=O)N2CC[C@H](Nc3ncc(Cl)c(-c4c[nH]c5ccccc45)n3)C2)cc1 [Compound 24, (4-aminophenyl)((S)-3-(5-chloro-4-(1H-indol-3-yl)pyrimidin-2-ylamino)pyrrolidin-1-yl)methanone] |
| < 0.1 µM | > 5 µM |  | Nc1ccc(S(=O)(=O)N2CC[C@@H](Nc3ncc(Cl)c(-c4c[nH]c5ccccc45)n3)C2)cc1 [Compound 32, N—((R)-1-(4-aminophenylsulfonyl)pyrrolidin-3-yl)-5-chloro-4-(1H-indol-3-yl)pyrimidin-2-amine] |
| < 0.1 µM | 0.5 to 5 µM |  | CN(C/C=C/C(=O)Nc1ccc(CN2CCC(Nc3ncc(Cl)c(-c4c[nH]c5ccccc45)n3)CC2)cc1)CC(=O)O [Compound 148, 2-[[(E)-4-[4-[[4-[[5-chloro-4-(1H-indol-3-yl)pyrimidin-2-yl]amino]-1-piperidyl]methyl]anilino]-4-oxo-but-2-enyl]-methyl-amino]acetic acid] |
| < 0.1 µM | < 0.5 µM |  | CN(C)C/C=C/C(=O)Nc1ccc(CN2CC[C@@H](Nc3ncc(Cl)c(-c4c[nH]c5ccccc45)n3)C2)cc1 [Compound 144, (R,E)-N-(4-((3-((5-chloro-4-(1H-indol-3-yl)pyrimidin-2-yl)amino)pyrrolidin-1-yl)methyl)phenyl)-4-(dimethylamino)but-2-enamide (E)-4-(dimethylamino)but-2-enoate] |
| < 0.1 µM | < 0.5 µM |  | C=CC(=O)Nc1ccc(CNC(=O)[C@H]2CNCC(Nc3ncc(Cl)c(-c4c[nH]c5ccccc45)n3)C2)cc1 (mixture of isomers) [Compound 151, (+/−trans)-N-(4-acrylamidobenzyl)-5-((5-chloro-4-(1H-indol-3-yl)pyrimidin-2-yl)amino)piperidine-3-carboxamide] |

| Compound | IC50 [1] | IC50 ([2]; Homo sapiens, Jurkat, 72 h) | IC50 [2] |
| --- | --- | --- | --- |
| CN(C)C/C=C/C(=O)Nc1ccc(C(=O)N2[C@@H]3CC[C@H]2C[C@@H](Nc2ncc(Cl)c(-c4c[nH]c5ccccc45)n2)C3)cc1 [Compound 116, ((1R,3R,5S)-3-(5-chloro-4-(1H-indol-3-yl)pyrimidin-2-ylamino)-8-aza-bicyclo[3.2.1]octan-8-yl)(4-((E)-N-4-(dimethylamino)but-2-enamide)phenyl)methanone] | 0.1 to 1 µM | 0.5 to 5 µM |  |
